Assay results published in patent publication US7407914B2, “Herbicide composition” (Sumitomo Chemical Company, Limited, priority 2001, dated 2008).

System: broadleaf signalgrass
Assay: Foliar spray herbicide effect test in greenhouse pots (Test Example 1)
Assay type: in vivo, Brachiaria platyphylla
Details: evaluated 5 days after treatment, level 0-10
Experimental: Evaluation of phytotoxicity against a crop was shown by “no” when almost no phytotoxicity was observed, “low” when a low level phytotoxicity was observed, “medium” when a medium level phytotoxicity was observed and “high” when a high level phytotoxicity was observed.
A plastic pot of 11 cm in diameter and 8 cm in depth was filled with field soil. A seed of broadleaf signalgrass was sown and grown in a greenhouse for 28 days.
An emulsion of Compound A-1 was prepared by sufficiently mixing […] of Compound A-1, 6 parts of Sorpol 3005× (surfactant, produced by Toho Chemical) and 89 parts of xylene.
Each of • single use of an emulsion of Compound A-1, • single use of a formulation of Flumioxazin (commercial name: Pledge, produced by Sumitomo Chemical, containing 50% of Flumioxazin), • single use of a formulation of Sulfentrazone (commercial name: Authority, produced by Du Pont, containing 75% of Sulfentrazone), • a mixed composition of an emulsion of Compound A-1 and a formulation of Flumioxazin, and • a mixed composition of an emulsion of Compound A-1 and a solution of Sulfentrazone • were diluted with water containing 1% Agri-dex (produced by Helena). […]
After the treatment, they were raised in a greenhouse for 5 days and the effect against weeds was evaluated. In addition, after 14 days of the treatment, the phytotoxicity to soybean was evaluated.

## Cc1nn(-c2cc(NS(C)(=O)=O)c(Cl)cc2Cl)c(=O)n1C(F)F [Sulfentrazone, N-[2,4-dichloro-5-[4-(difluoromethyl)-4,5-dihydro-3-methyl-5-oxo-1H-1,2,4-triazol-1-yl]phenyl]methanesulfonamide]
200 g/ha active ingredient
  Herbicide Effect Broad signalgrass: 1
1200 g/ha active ingredient
  Herbicide Effect Broad signalgrass: 3
